From patent US9481667B2, “Salts and solid forms of isoquinolinones and composition comprising and methods of using the same” (Infinity Pharmaceuticals, Inc., priority 2013, dated 2016) come the findings set out here.

≈ marks a conversion by molar mass, not a printed value. Structures can show the parent of a compound that is named as a salt.

Common to all, as to assay type: physicochemical
A short description of series [1]: Storage at 40° C./75% RH (solid-state stability). The following applies: for Storage 40° C./75% RH for 1 week: HPLC Purity / Storage 40° C./75% RH for 1 week: XRPD (D8): 0.5 g scale-up salts; for Stability on storage at 40° C./75% RH: 1 week, solid form by XRPD.
Experimental: The crystalline solids were filtered, dried at ambient conditions, and stored at 40° C./75% RH for 1 week and analyzed by ^1H NMR/IC.
Samples from the screen using amorphous free base Compound 1 were analysed by ^1H-NMR and DSC, and re-analysis by XRPD was also carried out after drying at 50° C./vacuum and storage at 40° C./75% RH (the same sample was dried and stored at elevated humidity).
Series [2] can be described thus: Storage at 25° C./93% RH (solid-state stability). The following applies: for Storage 25° C./93% RH for 1 week: HPLC Purity / Storage 25° C./93% RH for 1 week: XRPD (D8): 0.5 g scale-up salts; for Stability on storage at 25° C./93% RH: 1 week, solid form by XRPD.
Series [3] is described as follows: Gravimetric vapour sorption (GVS). As to conditions: for XRPD post GVS (C2): 0.5 g scale-up salts; for GVS Single cycle: hygroscopicity, 0-90% RH; for GVS: moisture content reached on uptake at 40-50% RH: remains stable on sorption up to 90% RH and on desorption down to 10% RH. How it is done: Sorption isotherms were obtained using a Hiden IGASorp moisture sorption analyser, controlled by CFRSorp software. The sample temperature was maintained at 25° C. by a Huber re-circulating water bath. The humidity was controlled by mixing streams of dry and wet nitrogen, with a total flow rate of 250 ml/min. The relative humidity (RH) was measured by a calibrated Vaisala RH probe (dynamic range of 0-95% RH), located near the sample. The weight change, (mass relaxation) of the sample as a function of % RH was constantly monitored by the microbalance (accuracy ±0.001 mg). Typically 10-20 mg of sample was placed in a tared mesh stainless steel basket under ambient conditions. The sample was loaded and unloaded at 40% RH and 25° C. (typical room conditions). A moisture sorption isotherm was performed as outlined below (2 scans giving 1 complete cycle). The standard isotherm was performed at 25° C. at 10% RH intervals over a 0-90% RH range.
The software uses a least squares minimisation procedure together with a model of the mass relaxation, to predict an asymptotic value. The measured mass relaxation value must be within 5% of that predicted by the software, before the next % RH value is selected. The minimum equilibration time was set to 1 hour and the maximum to 4 hours. The sample was recovered after completion of the isotherm and re-analysed by XRPD.

Series [4] is described as follows: Thermodynamic aqueous solubility.
A short description of series [5]: Polymorph screen: maturation (temperature cycling RT/50° C.) in solvents. How it is done: One of 21 solvents was added to each vial in a number of aliquots (up to 30 volumes), with shaking. All the samples were then placed under maturation between RT to 50° C. (4 hours at each temperature) for 3 days. After maturation the samples were analysed by XRPD. Clear solutions were cooled to −20° C. (freezer). If no precipitation occurred samples were evaporated at RT.
Samples were placed under maturation between RT-50° C. (4 hours cycle) for 3 days. After maturation the samples were analyzed by XRPD. Clear solutions were then cooled to −20° C. (freezer). If no precipitation occurred, samples were evaporated at RT.
Bis-Sulfuric acid salt Form 1 of Compound 1 (ca. 35 mg) was weighed into vials. The corresponding solvents and solvent mixtures were added in portions of (a total of) 5, 10, 20, and 30 volumes at 50° C., with shaking, aiming for clear solutions. After each addition, the vials were allowed to shake for 20 minutes, after which observations were made. Solutions were allowed to evaporate, whereas slurries were set for 8 hour temperature cycling maturation, between RT and 50° C., for 5 days.
The oils obtained by solvent evaporation were used for the maturation screen. Anhydrous solvents (5 volumes; 100 μL) were used in order to minimise the amount of water present. Any solutions were allowed to slowly evaporate, whereas slurries were set for 8 hour temperature cycling maturation, between RT and 50° C. After 24 hours, most oils had not mixed with the solvents, and these were scratched with a spatula, producing slurries. These were matured for a further 24 hours before performing XRPD analysis.
Amorphous free base Compound 1 (ca. 25 mg) was weighed into vials. The selected solvents and solvent mixtures (5 to 20 volumes) were added with stirring. Any solutions were allowed to slowly evaporate, whereas slurries were set for 8 hour temperature cycling maturation, between RT and 50° C., for 2 days.
Crystals were ground in order to analyse them by XRPD. Suspensions were set for temperature cycling for a total of five days after which time XRPD analysis was carried out. […] Similar to the screen in Example 20, these XRPD patterns show slight differences (FIG. 37). However, solids from both screens obtained from the same solvent show a matching XRPD pattern, also supporting that this is a series of isostructural solvates. […]

Series [6] in a line: 2-Week comparative stability studies. As to conditions: 2 weeks; 5° C. (closed); ambient (closed); ambient (closed-exposed to light); ambient (open); 60° C. (closed); RT/75% RH (open); 40° C./75% RH (open). How it is done:
(closed); (ii) ambient (closed); (iii) ambient (closed-exposed to light); (iv) ambient (open); (v) 60° C. (closed); (vi) RT/75% RH (open); and (vii) 40° C./75% RH (open).

Series [7] is described as follows: Dissolution. As to conditions: in 15 min at pH 1.2. How it is done: The dissolution rate for the hydrate was about 80% in 15 min at pH 1.2 and about 20% in 60 min at pH 2.5. The dissolution rate of the bis-sulfuric acid salt was 100% in 15 min at both pH 1.2 and pH 2.5.
Series [8] in a line: Density and flowability (Hausner ratio, Carr index). An excerpt:
The Hausner ratio and the Carr index are correlated to the flowability of a powder or granular material. […] The flowability of both salts are acceptable for manufacturing.

Series [9] in a line: Solubility assessment using free base Hydrate Form 2. How it is done:
The best solvent systems (clear solutions) were methanol:anisole 1:1 and DMSO (10 volumes, at RT), dioxane (10 volumes, 50° C.), chloroform (20 volumes, RT). […]

Series [10] in a line: Stability of Hydrate Form 2 of free base: maturation in water or acetic acid:water. The following applies: 40 hours. How it is done:
Both solids obtained from maturation at 25° C.

Assay in series [11]: as above
As to conditions: 40 hours. The source holds these as a separate data set.

Setting [12] is: listed as Compound 1 Free Base Form 2.

As to `COc1cc(-c2cccc3cc([C@H](C)Nc4nc(N)ncc4C#N)n(-c4ccccc4)c(=O)c23)ccn1` [Form 1 of the maleic acid salt of Compound 1] [(S)-2-amino-4-((1-(8-(2-methoxypyridin-4-yl)-1-oxo-2-phenyl-1,2-dihydroisoquinolin-3-yl)ethyl)amino)pyrimidine-5-carbonitrile], in [1], the “Storage 40° C./75% RH for 1 week: HPLC Purity” value is on record as “HPLC Purity: 99.8% Peak Area”, the “Storage 40° C./75% RH for 1 week: XRPD (D8)” value is on record as “XRPD (D8): Unchanged” and the “Stability on storage at 40° C./75% RH” value is listed as “stable”. The “Stability on storage at 40° C./75% RH” value in series [1] (listed as mono-maleic acid salt) is reported as “stable”. In [2], the “Storage 25° C./93% RH for 1 week: HPLC Purity” value is “HPLC Purity: 99.8% Peak Area” and the “Storage 25° C./93% RH for 1 week: XRPD (D8)” value was “XRPD (D8): Unchanged”. For the same molecule, the “XRPD post GVS (C2)” value in series [3] was “Unchanged”. The “GVS Single cycle” value in series [3] (25° C.) was “Slightly hygroscopic”. In addition, the “XRPD (C2) post Aqueous solubility” value in series [4] (solid after thermodynamic aqueous solubility) is recorded as “FB pattern 2”. The “Salt stability on maturation in solvents” value in [5] (RT to 50° C., 3 days, Ethanol, 2-Propanol, 1-Propanol, Acetone, THF, 2-Propanol/Water (90/10 v/v), EtOH/Water (90/10 v/v), Acetic acid/Water (25/75 v/v): free base recrystallized) is recorded as “tendency to dissociate”. In addition, in series [6], the “Change of water content (KF)” value is listed as “No significant change of water content”. Further, the dissolution rate in series [7] (listed as Form 1 of mono-maleic acid salt) is recorded as 100%. Further, the “Flowability compared to the hydrate” value in series [8] is listed as “improved flowability”.

For `COc1cc(-c2cccc3cc([C@H](C)Nc4nc(N)ncc4C#N)n(-c4ccccc4)c(=O)c23)ccn1` [Form 1 of the sulfuric acid salt of Compound 1] [(S)-2-amino-4-((1-(8-(2-methoxypyridin-4-yl)-1-oxo-2-phenyl-1,2-dihydroisoquinolin-3-yl)ethyl)amino)pyrimidine-5-carbonitrile], in series [1], the “Storage 40° C./75% RH for 1 week: HPLC Purity” value was “HPLC Purity: Unchanged”, the “Storage 40° C./75% RH for 1 week: XRPD (D8)” value was “XRPD (D8): Unchanged” and the “Stability on storage at 40° C./75% RH” value is “stable”. In series [1] (listed as bis-sulfuric acid salts), the “Stability on storage at 40° C./75% RH” value is reported as “stable”. Further, in series [2], the “Storage 25° C./93% RH for 1 week: HPLC Purity” value was “HPLC Purity: Unchanged” and the “Storage 25° C./93% RH for 1 week: XRPD (D8)” value is “XRPD (D8): Unchanged”. The “XRPD post GVS (C2)” value in [3] was “Unchanged”. Also, in [3] (25° C.), the “GVS Single cycle” value is on record as “Slightly hygroscopic”. Moreover, the “Solid form after maturation of slurries” value in series [5] (slurries in 30 volumes of solvent, RT/50° C. cycling, five days (all experiments other than acetic acid/water, methanol, ethanol/water)) is reported as “did not show any changes”. In series [6], the “Change of water content (KF)” value was “No significant change of water content”. For the same molecule, in [7] (listed as Form 1 of bis-sulfuric acid salt monohydrate), the dissolution rate is listed as 100%. The “Flowability compared to the hydrate” value in [8] is listed as “improved flowability”.

For orientation: solubility (thermodynamic) means the concentration in solution at equilibrium with solid. In the case of `COc1cc(-c2cccc3cc([C@H](C)Nc4nc(N)ncc4C#N)n(-c4ccccc4)c(=O)c23)ccn1` [Form 2 of the free base of Compound 1, (S)-2-amino-4-((1-(8-(2-methoxypyridin-4-yl)-1-oxo-2-phenyl-1,2-dihydroisoquinolin-3-yl)ethyl)amino)pyrimidine-5-carbonitrile], the entries for the “Stability on storage at 40° C./75% RH” value in series [1], in [1] (setting [12]) and in [1] (listed as Free base Form 2) were “stable”, “Very slight changes after 1 week” and “mainly the same pattern with a few differences”, respectively. Besides, the “Stability on storage at 25° C./93% RH” value in [2] is “stable”; in series [2] (setting [12]) it was “Very slight changes after 1 week”; in series [2] (listed as Free base Form 2) it was “mainly the same pattern with a few differences”. The “GVS: moisture uptake on loading between 40-50% RH” value in [3] amounted to 1 % w/w. Besides, in series [3] (loaded at 40% RH, 25° C., listed as Compound 1 Free Base Form 2), the “GVS: moisture on loading” value was 4.7% w/w moisture on loading. Immediate. Also, the results for the “GVS: moisture content reached on uptake at 40-50% RH” value in [3] (setting [12]) and in series [3] (listed as Free base Form 2) were “moisture uptake (40-50% RH up to 5.7% w/w)” and 5.7 % w/w, respectively. The molecule also returned a thermodynamic solubility in series [4] (aqueous, water, thermodynamic from solid, at pH 6.47) of 5 µg/mL (≈ 10.2 µM). The “solvent volumes giving a clear solution” value in series [9] (2-methyltetrahydrofuran) was 50 volumes; in series [9] (DCM), 100 volumes; in [9] (DCM:methanol 1:1), 100 volumes; in series [9] (DME) it was 100 volumes; in series [9] (DMSO, at RT), 10 volumes; in series [9] (THF) it was 100 volumes. Besides, the “solvent volumes giving a clear solution” value in [9] (THF:5% water) came out at 50 volumes; in [9] (acetonitrile/5% water) it was 100 volumes; in [9] (chloroform, RT), 20 volumes; in series [9] (dioxane, 50° C.), 10 volumes; in series [9] (ethanol:anisole), 50 volumes; in series [9] (methanol), 100 volumes. For the same molecule, in series [9] (methanol:anisole 1:1, at RT), the “solvent volumes giving a clear solution” value was 10 volumes. For the same molecule, the “Solid form (XRPD) after maturation” value in [10] (acetic acid:water 1:3, 25° C.) was “stable”; in series [10] (acetic acid:water 1:3, 25° C., listed as Hydrate Form 2 of free base of Compound 1) it was “unchanged Form 2”; in series [10] (pure water, 25° C.), “stable”; in series [10] (pure water, 25° C., listed as Hydrate Form 2 of free base of Compound 1) it was “unchanged Form 2”; in series [11] (acetic acid:water 1:3, 90° C.), “some evidence of the acetic acid solvate Form 6 mixed with a majority of Form 2”; in series [11] (pure water, 90° C., listed as Hydrate Form 2 of free base of Compound 1), “Form 2”. Also, in [6], the “Change of water content (KF)” value is recorded as “No significant change of water content”. In addition, in series [7] (listed as Form 2 of free base hydrate), the dissolution rate entry is listed as “about 80%”.
